The text below walks through data of patent publication US8748569B2, “Peptide amphiphiles and methods to electrostatically control bioactivity of the ikvav peptide epitope” (Northwestern University, priority 2011, dated 2014).

Peptide text beside a SMILES is read from it. * marks the point of attachment. Palmitoyl = CCCCCCCCCCCCCCCC(=O)*

Series [1] deals with P19 embryonal carcinoma cells differentiated into neurons. Kind of series: Neurite outgrowth of neurons cultured in peptide amphiphile gels. Format: cell-based, murine. As to conditions: compared to gels of PA 1; for promotion of neurite outgrowth (in words): gels containing 0.2 wt % of the PA with 0.8 wt % PA 1. How it is done:
P19 embryonal carcinoma cells were cultured in media composed of α-MEM (Gibco), 7.5% newborn calf serum (Lonza), 2.5% fetal bovine serum (Gibco), penicillin (100 units/ml) and streptomycin (100 ug/ml) (Invitrogen). Neuronal differentiation was induced by plating P19 cells in non-treated Petri dishes in media containing 5 uM retinoic acid (Sigma) for 4 days. Neurospheres were collected from the Petri dish and allowed to settle in a centrifuge tube for 10 minutes. Media was removed, then trypsin/EDTA solution was added and the tube was gently agitated for 5 minutes. Cells were dissociated by triturating the neurospheres, then media was added to inactivate the trypsin. Cells were centrifuged and the pellet resuspended in media to a concentration of 25,000 cells/ul. Cells were mixed (1:4) with PA solution. The PA/cell solution was pipetted into coverslip-bottom culture dishes (MatTek) and covered with gelling solution (150 mM NaCl, 3 mM KCl, 25 mM CaCl2) for 1 minute to induce gelation, then rinsed with a 150 mM NaCl, 3 mM KCl solution, then media was added to the dish. Cells were cultured for 2 days.
In order to assay neurite outgrowth, gels were rinsed with PBS, then fixed in 4% paraformaldehyde for 30 minutes at room temperature. Gels were rinsed 3× with PBS followed by addition of 10% normal goat serum blocking solution (Invitrogen) with 0.1% Triton X-100 added. Gels were incubated overnight with primary antibody (rabbit anti-β-III-tubulin IgG, 1/2000, Covance) in blocking solution. Gels were rinsed 3× with PBS, then blocked for 30 minutes with blocking solution. Next, gels were incubated with secondary antibody (Alexa Fluor 488 goat anti-rabbit IgG, 1/100, Invitrogen) in blocking solution for 1 hour. After one PBS rinse, nuclei were stained with a 5 ug/ml solution of Hoecsht 34580 (Invitrogen) in PBS for 15 minutes, then rinsed 4 times. Gels were imaged on a Zeiss LSM 510 META laser scanning confocal microscope, individually acquiring z-stacks of randomly chosen cells with neurites. Two gels were imaged per condition for each experiment. Experiments were done in triplicate. For each condition, at least 50 neurons with neurites were imaged. Using the Simple Neurite Tracer plug-in for ImageJ software, neurites were traced and measured. A one-way ANOVA, followed by paired t-tests, were performed to determine significance between conditions. Researchers were blinded to the conditions during imaging and tracing.
Pluripotent murine P19 embryonal carcinoma cells were differentiated into neurons. These neurons were then homogeneously distributed into isotonic salt solutions composed of 0.8 wt % PA 1 mixed with 0.2 wt % 2-5 and gelled with 25 mM CaCl2 (FIG. 3a,b). Mixtures of 1 with 2-5 were used in biological experiments in order to form robust gel matrices capable of supporting cells in culture. After two days of culture, the cells were fixed and the neurites and nuclei were fluorescently labelled green and blue using β-III-tubulin immunostaining and Hoechst staining, respectively, then imaged by confocal microscopy (FIG. 14). Neurites were traced and measured, and average neurite lengths were calculated (FIG. 15).

A short description of series [2]: Small-angle X-ray scattering (SAXS) of PA nanostructures. Format: physicochemical. The settings on record: (Core) Shell Cylinder SAXS model; for Total SAXS Cross-section dimensions: diameter. From the text: Small-angle X-ray scattering (SAXS) measurements were obtained using a Rigaku S-MAX 3000 High Brilliance SAXS System. Cu Ka radiation was generated by Osmic MicroMaxs, an integrated microfocus sealed tube generator (powered at 45 kV and 0.9 mA) with Osmict Confocal Max-Fluxs optics, 3 pinholes collimation. A 20×20 cm^2 2D position-sensitive wire detector (1024×1024 pixels) was positioned 150 cm behind the examined samples, resulting in a q-range of 0.07-2.8 nm^−1. The wave vector defined as, q=(4π/λ)sin(2θ/2), where 2y is the scattering angle and λ is wavelength of Cu Kα radiation (1.542 Å). A total of 10^6 or more counts were collected in order to obtain a high signal to noise ratio. Samples were measured for 3600 s, and then background subtracted from data collected using a capillary containing the isotonic salt solution. The 2D SAXS patterns were azimuthally averaged and the background subtracted using standard methods. Data analysis was based on fitting the scattering curve to an appropriate model by a least-squares method using software provided by NIST (NIST SANS analysis version 7.0 on IGOR) ^21 The table below lists the models used to fit the SAXS curves. The Total SAXS cross-sectional dimensions correspond to length and width for molecule 2, and diameter for 3-5.

A short description of series [3]: Transmission electron microscopy (cryoTEM / conventional TEM) of PA nanostructures. The format is physicochemical. The settings on record: for OBSERVED FIBER DIAMETER: from TEM; for ASSEMBLED MORPHOLOGY: observed morphologies from TEM; for average diameter of cylindrical fibers: cryoTEM, 150 mM NaCl, 3 mM KCl, pH 7.4; for fiber diameter in trimer ribbons: cryoTEM / TEM, fibers aggregated side-by-side. How it is done:
The nanostructure of each PA molecule under physiologically relevant conditions was investigated using electron microscopy. Samples for vitreous ice cryo-transmission electron microscopy (cryoTEM) were prepared from a 0.1-0.5 wt % PA solution dissolved in 150 mM NaCl, 3 mM KCl, or in a 150 mM NaCl, 3 mM KCl, and 5 mM CaCl2 solution, both at a pH of 7.2-7.4. The solutions were then heated to 80° C. in a water bath for 1 hr, and then slowly cooled to room temperature over the course of 8 hr. 10 μL of each solution was pipetted onto a plasma cleaned holey carbon TEM grid (Electron Microscopy Sciences), blotted and plunged into liquid ethane using a FEI Vitrobot Mark IV. Samples were kept at −180° C. and imaged using a JEOL 1230 TEM operating at 100 kV.
Samples for conventional TEM microscopy were prepared from 0.1 wt % PA solution dissolved in ultrapure water and adjusted to a pH of 7.2-7.4 by adding NaOH. The solutions were then heated to 80° C. in a water bath for 1 hr, and then slowly cooled to room temperature over the course of 8 hr, unless noted otherwise. 2 μL of a 0.1 wt % PA solution was pipetted onto a Carbon Formvar grid (Electron Microscopy Sciences) and allowed to dry. The samples were then negatively stained by pipetting 2 uL of a 2 wt % Uranyl acetate solution and allowed to dry. Each sample was imaged using a JEOL 1230 TEM operating at 100 kV. The average diameter of nanofibers was obtained via measuring 40-100 different fibers from solutions and grids prepared throughout multiple days.
The assembly of each PA molecule under physiologically relevant conditions was examined using cryogenic electron microscopy (cryoTEM), as described in Example 4. PAs were dissolved in isotonic salt solutions resembling extracellular fluid (150 mM NaCl, 3 mM KCl, pH 7.4). […] In order to compare molecular simulation diameters with those observed from TEM, molecular simulation values for the other four PA molecules were scaled by the same amount, 87%.

Series [4] can be described thus: Solubility in physiologically relevant monovalent salt solution. The format is physicochemical. As to conditions: monovalent salt solution composed of 150 mM NaCl and 3 mM KCl.
A further series in a line: Circular dichroism (CD). As to conditions: 1 wt % in 150 mM NaCl, 3 mM KCl. The format is physicochemical. How it is done:
CD was done using a model J-715 Jasco Circular Dichroism Spectrometer. 1 wt % PA solutions were prepared in either a 150 mM NaCl, 3 mM KCl solution or a 150 mM NaCl, 3 mM KCl, and 5 mM CaCl2 solution, both at a pH of 7.2-7.4, as determined via pH paper. The solutions were then heated to 80° C. in a water bath for 1 hr, and then slowly cooled to room temperature over the course of 8 hr. The samples were measured through 0.01 mm quartz plates. Each trace represents the average of three scans. The mean residue ellipticity was corrected for purity of the lyophilized powder from peptide content analysis.
In general terms: CD spectra are sensitive to the conformation of chiral molecules.

For “CH3(CH2)14C(O)-VVAAEEEGGIKVAV-OH (Palmitoyl-VVAAEEEGGIKVAV-OH; SMILES CCCCCCCCCCCCCCCC(=O)N[C@H](C(=O)N[C@H](C(=O)N[C@@H](C)C(=O)N[C@@H](C)C(=O)N[C@@H](CCC(=O)O)C(=O)N[C@@H](CCC(=O)O)C(=O)N[C@@H](CCC(=O)O)C(=O)NCC(=O)NCC(=O)N[C@H](C(=O)N[C@@H](CCCCN)C(=O)N[C@H](C(=O)N[C@@H](C)C(=O)N[C@H](C(=O)O)C(C)C)C(C)C)[C@@H](C)CC)C(C)C)C(C)C) [PA 4]”, in series [1], the “promotion of neurite outgrowth (in words)” value (“promotion” below) was “did not show any biological activity with respect to neurite outgrowth”. Also, the “promotion” value in series [1] (listed as 4) is “did not”. In addition, in series [2], the “Core Diameter” value was “.93 nm”, the “Shell Thickness” value is 2.63 ± 1.1 nm and the “Total SAXS Cross-section dimensions” value was 7.1 ± 2.2 nm. For the same compound, in series [3] (cryoTEM and conventional TEM), the “fiber diameter in bundled dimers” value is 8.1±1.0 nm and the “fiber diameter in triple helices” value is 7.7±0.9 nm. In series [3] (Dimer Bundle morphology), the “OBSERVED FIBER DIAMETER” value is recorded as 77 ± 9 Å and the “ASSEMBLED MORPHOLOGY” value is “Dimer Bundle”. Besides, in series [3] (Triple helix morphology), the “OBSERVED FIBER DIAMETER” value is on record as 81 ± 10 Å and the “ASSEMBLED MORPHOLOGY” value is “Triple helix”.
For “CH3(CH2)14C(O)-VVAAEE-NH2 (Palmitoyl-VVAAEE-NH2) [PA 1]”, in series [3], the “average diameter of cylindrical fibers” value is recorded as 6.7±0.9 nm, the “OBSERVED FIBER DIAMETER” value is reported as 66 ± 9 Å and the “ASSEMBLED MORPHOLOGY” value is “Cylindrical fiber”. Also, the “average diameter of cylindrical fibers” value in series [3] (listed as PA compound 1) was determined as 6.7 nm.
For the compound `CCCCCCCCCCCCCCCC(=O)N[C@H](C(=O)N[C@H](C(=O)N[C@@H](C)C(=O)N[C@@H](C)C(=O)N[C@@H](CCC(=O)O)C(=O)N[C@@H](CCC(=O)O)C(=O)N[C@@H](CCC(=O)O)C(=O)NCC(=O)N[C@H](C(=O)N[C@@H](CCCCN)C(=O)N[C@H](C(=O)N[C@@H](C)C(=O)N[C@H](C(=O)O)C(C)C)C(C)C)[C@@H](C)CC)C(C)C)C(C)C` [PA 3, CH3(CH2)14C(O)-VVAAEEEGIKVAV-OH] (Palmitoyl-VVAAEEEGIKVAV-OH), in series [1], the “promotion” value was “promoted neurite outgrowth”. Also, the “promotion” value in series [1] (listed as SEQ ID NO. 5) is “promote neurite outgrowth”. Moreover, in series [1] (gels of 0.8 wt % PA 1 mixed with 0.2 wt % of the PA, gelled with 25 mM CaCl2, 2 days culture), the “increase in neurite outgrowth” value turned out to be 42±13%. In series [2], the “Core Diameter” value came out at 1.2 nm, the “Shell Thickness” value was determined as 3.8 ± 0.6 nm and the “Total SAXS Cross-section dimensions” value is 7.6 ± 1.2 nm. In addition, the “fiber diameter in trimer ribbons” value in series [3] turned out to be 7.1±1 nm. In series [3] (cryoTEM and conventional TEM), the “diameter of cylindrical assemblies” value worked out at 12.8±1.3 nm. Further, in series [3] (Cylindrical morphology), the “OBSERVED FIBER DIAMETER” value was 128 ± 14 Å and the “ASSEMBLED MORPHOLOGY” value was “Cylindrical”. In series [3] (Trimer ribbon morphology), the “OBSERVED FIBER DIAMETER” value amounted to 71 ± 5 Å and the “ASSEMBLED MORPHOLOGY” value is reported as “Trimer ribbon”. The solubility entry in series [4] was “soluble”. The “peptide secondary structure from CD spectrum” value in “Circular dichroism (CD)” was “beta-sheet like CD signatures”.
On to “CH3(CH2)14C(O)-VVAAEEGIKVAV-OH (Palmitoyl-VVAAEEGIKVAV-OH; SMILES CCCCCCCCCCCCCCCC(=O)N[C@H](C(=O)N[C@H](C(=O)N[C@@H](C)C(=O)N[C@@H](C)C(=O)N[C@@H](CCC(=O)O)C(=O)N[C@@H](CCC(=O)O)C(=O)NCC(=O)N[C@H](C(=O)N[C@@H](CCCCN)C(=O)N[C@H](C(=O)N[C@@H](C)C(=O)N[C@H](C(=O)O)C(C)C)C(C)C)[C@@H](C)CC)C(C)C)C(C)C) [PA 2]”, for which the “promotion” value in series [1] is reported as “no enhancement of neurite outgrowth”. In series [1] (listed as 2), the “promotion” value is on record as “did not”. In addition, in series [3], the “fiber diameter in trimer ribbons” value was determined as 6.0±0.5 nm, the “OBSERVED FIBER DIAMETER” value is listed as 60 ± 5 Å and the “ASSEMBLED MORPHOLOGY” value was “Trimer ribbon”. Further, the “peptide secondary structure from CD spectrum” value in the series “Circular dichroism (CD)” is “beta-sheet like CD signatures”.
